Source: patent US6313164A, “Dithiolin derivatives, their preparation and their therapeutic effect” (Sankyo Company, Limited, priority 1997, dated 2001)

How the values were obtained:
glutathione reductase = experiment: Measurement of glutathione reductase activity in cultured rat lens; format: cell-based, SD rats; details: 72 hours, 37° C.
Procedure: The test animals were 6 to 8 week old male SD rats (supplier: Nippon SLC). The animals were sacrificed by suffocation by inhalation of carbon dioxide. Both eyeballs of each test animal were then excised. An incision was made in the sclera on the back of the eyeballs, and then the vitreous body and iris-ciliary body were removed, followed by removal of the lens.
Each lens obtained in this manner was cultured by immersing it in 3 ml of the culture solution described below in a 6-well tissue culture plate (FALCON). Culturing was performed for 72 hours in a CO2 incubator maintained at 37° C. and 100% humidity in the presence of 5% CO2 (in air).
Medium 199 (Gibco) containing penicillin (20 units/ml) and streptomycin (20 μg/ml) was used as the control culture solution.
The test culture solution contained the test compound added to the above-mentioned culture solution. The cultured lenses were placed in frozen storage until the time of the test.
After homogenising each frozen rat lens in 2 ml of distilled water, the resulting homogenate was separated by centrifugation (10,000 g, 20 minutes) after which the resulting supernatant was used as the enzyme sample.
400 μl of enzyme sample were added to 0.6 ml of phosphate buffer containing 1 mM oxidized glutathione (GSSG) and 100 μM NADPH. After the mixture had reacted at 25° C. for 6 minutes, the absorbance of the reaction mixture (at 340 nm: i.e. OD340nm) was measured. The difference (ΔOD340nm) between the OD340nm value before reaction and the OD340nm value after completion of the reaction was used as an indicator of glutathione reductase activity.

newborn rats = details: cited from earlier work

CS(=O)(=O)NC(=O)CCCCC1CCSS1 (centres unmarked) [Example 2, N-[5-(1,2-Dithiolan-3-yl)pentanoyl]methanesulfonamide]
ΔOD340 nm /min/g protein (indicator of glutathione reductase activity) (glutathione reductase; 10 μM in lens culture solution): 3.24 ± 0.10 ΔOD340 nm /min/g protein | ΔOD340 nm /min/g protein (indicator of glutathione reductase activity) (glutathione reductase; 30 μM in lens culture solution): 3.20 ± 0.09 ΔOD340 nm /min/g protein | ΔOD340 nm /min/g protein (indicator of glutathione reductase activity) (glutathione reductase; 100 μM in lens culture solution, p < 0.05): 3.59 ± 0.05 ΔOD340 nm /min/g protein | ΔOD340 nm /min/g protein (indicator of glutathione reductase activity) (glutathione reductase; 300 μM in lens culture solution, p < 0.05): 3.70 ± 0.08 ΔOD340 nm /min/g protein | ΔOD340 nm /min/g protein (indicator of glutathione reductase activity) (glutathione reductase; 1000 μM in lens culture solution, p < 0.05): 4.16 ± 0.18 ΔOD340 nm /min/g protein

O=C(O)CCCCC1CCSS1 (centres unmarked) [lipoic acid]
activity of glutathione reductase (newborn rats; lipoic acid in addition to BSO): does not increase | cataract formation (newborn rats; lipoic acid together with BSO): suppressed | total glutathione (oxidized and reduced glutathione) level (newborn rats; lipoic acid together with BSO): decrease is prevented
